# Test results reported in publication PMC9019100, “Development of NanoLuc-targeting protein degraders and a universal reporter system to benchmark tag-targeted degradation platforms” (Nature Communications, 2022).
# Several values for one entry are separate records, joined by “and”; a condition that tells them apart may be missing. Equal entries are not always repeated. Where two headings read alike, the source gives them in different places.
# Legend:
# [1] = tested on: MLKL^−/− HT29 cells expressing untagged MLKL; format: cell-based; conditions: MLKL-/- + MLKL, independent experiments
# [2] = tested on: MLKL^−/− HT29 cells expressing MLKL-FKBP^F36V; format: cell-based; conditions: for Live cells (%PI negative) after TNF+911+zVAD: MLKL-/- + MLKL FKBPF36V, independent experiments
# [3] = molecular target: T1, Halo-EGFP-NanoLuc-FKBP^F36V (H-E-N-F) fusion protein (UniProt P0A3G2+P62942+Q9GV45, A155T/A167V/A172T/A224E/A31E/A60N/A81I/C128F/C176G/D78G/E160K/E257K/F37V/F95D/H272N/I117V/K175M/K195N/K70R/L47V/L54V/L88M/L99Q/M102K/N193R/N227D/P142E/P291S/Q151K/Q38R/Q45L/S2A/S58T/T264A/V71I/Y165I/Y273L/Y87F); format: cell-based; conditions: for Blank corrected (470-80) luminescence / Blank corrected Raw Data (470-80): +dox; for Blank corrected (470-80) luminescence: single well replicates; for Blank corrected (470-80): sheet S3B; for Blank corrected (470-80) / Blank corrected Raw Data (470-80): replicate wells; for Blank corrected Raw Data (470-80): PROTAC 500nM
# murine MLKL-FKBP^F36V = molecular target: T2, murine MLKL-FKBP^F36V (Homo sapiens, UniProt P62942, F37V); format: cell-based; conditions: 31.2-500 nM, 5 h
# T2 construct: expressed in transfected cells; host or cells: Mlkl-/- mouse dermal fibroblasts, doxycycline-inducible
# T2 sequence (P62942 whole entry F37V): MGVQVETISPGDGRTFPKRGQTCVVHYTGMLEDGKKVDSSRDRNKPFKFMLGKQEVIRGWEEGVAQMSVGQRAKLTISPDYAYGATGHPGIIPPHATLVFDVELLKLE
# Fibrillarin-FKBP^F36V = molecular target: T3, Fibrillarin-FKBP^F36V (Homo sapiens, UniProt P62942, F37V); format: cell-based; conditions: 500 nM, 10 h
# T3 construct: endogenous in cells; host or cells: 293T, CRISPR/PITCh knock-in at the FBL locus
# T3 sequence (P62942 whole entry F37V): as above
# wild-type HT29 cells = assay: Necroptosis assay (PI exclusion, flow cytometry), wild-type HT29 cells, TNF+SM+IDN; format: cell-based, human
# Procedure: To simulate necroptosis, cells were seeded into 96-well plates ±40 ng/mL doxycycline, to induce construct expression, and treated with 100 ng/mL FLAG-TNF (recombinant human, in-house), 500 nM compound A Smac mimetic (kindly gifted by TetraLogics Pharmaceuticals) and 5 μM IDN-6556 (Cayman) or 10 uM Z-VAD-fmk (Selleckchem) overnight (16–24 h). Degrader compounds or a DMSO vehicle control were added for 5 h, as stated in the Fig. legends. Cells were detached using Trypsin-EDTA (Merck) and resuspended in cell supernatants containing 10 μg/mL propidium iodide (PI). PI exclusion analysis was performed using an LSR II flow cytometer (Becton Dickinson, NJ) with 10,000 single-cell events per sample. Flow cytometry data were analysed using WEASEL version 2.7 software (Frank Battye).
# Supplementary Figure 5. […]
# NC4. Data are representative of N = 3 independent experiments. f-h. HT29 cells were stimulated with DMSO (control) or 500 nM of degrader for 5 hours before the addition of TNF (100 ng/mL) + Smac mimetic (compound A; 500 nM-1 µM) + caspase inhibitor; Emricasan (IDN) (5 µM), for 24 hours. Cell death was assessed by flow cytometric analysis of PI exclusion. N = 3 replicates (symbols) is shown, EB; mean ± SD. Data are representative of N = 3 independent experiments. i. Representative flow cytometry gating strategy. Source data are provided as a Source Data file.
# [4] = molecular target: T1, Halo-EGFP-NanoLuc-FKBP^F36V (H-E-N-F) fusion protein; format: cell-based; parameters: expressed in transfected cells; host or cells: immortalized mouse dermal fibroblasts (iMDFs), ubiquitin promoter, constitutive; conditions: 500 nM
# [5] = molecular target: recombinant NanoLuc enzyme (Oplophorus gracilirostris, UniProt Q9GV45, A31E/A60N/A81I/F95D/I117V/K70R/L54V/L99Q/M102K/N193R/P142E/Q151K/Q38R/Q45L/V71I/Y165I); format: biochemical; conditions: replicates
# recombinant NanoLuc enzyme, sequence (Q9GV45 other isoform, or with tags, fused parts or gaps with the stated changes): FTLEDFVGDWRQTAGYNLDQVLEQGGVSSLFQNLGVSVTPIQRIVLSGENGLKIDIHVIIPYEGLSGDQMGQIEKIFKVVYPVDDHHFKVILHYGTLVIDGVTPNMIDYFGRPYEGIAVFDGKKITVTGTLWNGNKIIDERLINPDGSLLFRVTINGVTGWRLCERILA
# NanoLuc = conditions: read-out: IC50 against the enzymatic activity of NanoLuc; cited from earlier work
# [6] = molecular target: T1, Halo-EGFP-NanoLuc-FKBP^F36V (H-E-N-F) fusion protein; format: cell-based; conditions: 125-500 nM, 5 h
# [7] = cited from earlier work
smiles,measurement,setting,value
CC[C@H](C(=O)N1CCCC[C@H]1C(=O)O[C@H](CCc1ccc(OC)c(OC)c1)c1ccccc1OCC(=O)NCCCCCCOc1cccc2c1C(=O)N(C1CCC(=O)NC1=O)C2=O)c1cc(OC)c(OC)c(OC)c1 (stereo partly shown) [FC1],Live cells (%PI negative) after TNF+911+zVAD,[1]; 3.9nM,6.9 and 6.6 and 8.9 and 5.1
same,Live cells (%PI negative) after TNF+911+zVAD,[1]; 7.8nM,6.1 and 5.8 and 8.5 and 4.8
same,Live cells (%PI negative) after TNF+911+zVAD,[1]; 31.25nM,5.7 and 5.5 and 8.3 and 4.7
same,Live cells (%PI negative) after TNF+911+zVAD,[1]; 62.5nM,6.6 and 6 and 9 and 4.5
same,concentration sustaining cell survival over 24 h,[2],62.5 nM
same,Live cells (%PI negative) after TNF+911+zVAD,[2]; 31.25nM,75.8 and 59.7 and 66 and 51.4
same,Live cells (%PI negative) after TNF+911+zVAD,[2]; 62.5nM,81.5 and 75.5 and 67.7 and 62.5
same,Live cells (%PI negative) after TNF+911+zVAD,[2]; 250nM,83.3 and 81.2 and 68.1 and 65
same,Live cells (%PI negative) after TNF+911+zVAD,[2]; 500nM,83.3 and 81.7 and 67.1 and 65
same,Live cells (%PI negative) after TNF+911+zVAD,[2]; 1000nM,81 and 84.9 and 67.9 and 54.3
same,Blank corrected (470-80) luminescence,[3]; 3.9nM PROTAC,74602 and 77149 and 76062 and 81411
same,Blank corrected (470-80) luminescence,[3]; 7.8nM PROTAC,59479 and 62985 and 66400
same,Blank corrected (470-80) luminescence,[3]; 31.25nM PROTAC,36339 and 35562 and 38426
same,Blank corrected (470-80) luminescence,[3]; 62.5nM PROTAC,25282 and 26898 and 23798 and 25010
same,Blank corrected (470-80),[3]; 62.5nM,88170.7 and 89328.7 and 91847.7 and 71716.7
same,Blank corrected (470-80) luminescence,[3]; 250nM PROTAC,11621 and 12159 and 11550
same,Blank corrected (470-80),[3]; 250nM,43826.7 and 54015.7 and 43806.7 and 52617.7
same,Blank corrected (470-80) luminescence,"[3]; 500nM PROTAC, 5h",14990 and 16286 and 14132
same,Blank corrected (470-80) luminescence,"[3]; 500nM PROTAC, 8h",14691 and 12990 and 15151
same,Blank corrected (470-80) luminescence,"[3]; 500nM PROTAC, 24h",19581 and 16848 and 19949 and 18475
same,Blank corrected (470-80) luminescence,[3]; 500nM PROTAC,10379 and 10950 and 11612
same,Blank corrected (470-80),[3]; 500nM,41968.7 and 40671.7 and 43532.7 and 41295.7
same,Blank corrected (470-80) luminescence,[3]; 1uM PROTAC,13507 and 14074 and 13991 and 15263
same,Blank corrected (470-80),[3]; 1uM,51312.7 and 60071.7 and 47699.7 and 53692.7
same,Blank corrected Raw Data (470-80),[3]; DMSO (control) co-treatment,8854 and 8375 and 8376 and 8057
same,Blank corrected Raw Data (470-80),[3]; co-treatment with MG132 (10uM),80455 and 95513 and 84222 and 82486
same,degradation of murine MLKL-FKBP^F36V,murine MLKL-FKBP^F36V,comparable degradation
same,Dmax (densitometry),Fibrillarin-FKBP^F36V,~ 70%
same,viable cells (PI exclusion),"wild-type HT29 cells; TNF+SM+IDN, sheet S5H",8.5 and 5.7 and 7.1
same,viable cells (PI exclusion),"wild-type HT29 cells; Untreated (no death stimulus), sheet S5H",77.5 and 79.3 and 78.7
same,"time up to which degradation was seen, degrader left in the medium","[4]; 5, 24 or 48 h",up to 48 h
same,"time up to which degradation was maintained, degrader removed at 5 h",[4]; 24 or 48 h after removal,up to 48 h
CCc1cccc(N(CC)C(=O)Cn2c(C(=O)N[C@H]3CC[C@H](C(=O)NCCCCCCCC(=O)O)CC3)cc3ccccc32)c1 [NanoLuc Inhibtor 2],NanoLuc luminescence (enzyme activity remaining),[5]; [uM] -0.30103 (log10 concentration),0.9
same,NanoLuc luminescence (enzyme activity remaining),[5]; [uM] -0.82391 (log10 concentration),1.5 (2×) and 1.6
same,NanoLuc luminescence (enzyme activity remaining),[5]; [uM] -1.34679 (log10 concentration),4.4 and 4.7 and 4.6
same,NanoLuc luminescence (enzyme activity remaining),[5]; [uM] -1.86967 (log10 concentration),23.6 and 24.5 and 24.3
same,NanoLuc luminescence (enzyme activity remaining),[5]; [uM] -2.39254 (log10 concentration),55.8 and 56.1 and 58
same,NanoLuc luminescence (enzyme activity remaining),[5]; [uM] -2.91542 (log10 concentration),74.8 and 76.4 and 76
same,NanoLuc luminescence (enzyme activity remaining),[5]; [uM] -3.4383 (log10 concentration),81.7 and 82.7 and 82.1
CCc1cccc(N(CC)C(=O)Cn2c(C(=O)N[C@H]3CC[C@H](C(=O)NCCCCCCCC(=O)O)CC3)cc3ccccc32)c1 [NanoLuc inhibitor 2],IC50,NanoLuc,0.0042 µM
CCc1cccc(N(CC)C(=O)Cn2c(C(=O)NC3CCC(C(=O)NCCCCCCCC(=O)NCCCCCCOc4cccc5c4C(=O)N(C4CCC(=O)NC4=O)C5=O)CC3)cc3ccccc32)c1 (stereo not shown) [NC3],"degradation of the H-E-N-F substrate protein by Western blot, comparison of NanoTACs",[6],consistently outperforming the first analogue NC1
same,viable cells (PI exclusion),"wild-type HT29 cells; TNF+SM+IDN, sheet S5F",7.5 and 6.4 and 5.5
same,viable cells (PI exclusion),"wild-type HT29 cells; Unt (no death stimulus), sheet S5F",69.5 and 75.6 and 73.1
CCN(C(=O)Cn1c(C(=O)N[C@H]2CC[C@H](C(=O)NCCCCCCCC(=O)O)CC2)cc2sccc21)c1cccc(C)c1 [NanoLuc inhibitor 1],IC50,NanoLuc,0.031 µM
CO[C@H]1C[C@@H]2CC[C@@H](C)[C@@](O)(O2)C(=O)C(=O)N2CCCC[C@H]2C(=O)O[C@H]([C@H](C)C[C@@H]2CC[C@@H](OCCOCc3cn(CCOCCOCCNc4cccc5c4C(=O)N(C4CCC(=O)NC4=O)C5=O)nn3)[C@H](OC)C2)CC(=O)[C@H](C)/C=C(/C)[C@@H](O)[C@@H](OC)C(=O)[C@H](C)C[C@H](C)\C=C/C=C\C=C/1C (stereo partly shown) [RC32],depletion of substrates in animals,[7],efficient depletion of substrates
same,tolerability in animals,[7],well tolerated
